In one assay the target is T1, IRAK4 (Homo sapiens, UniProt Q9NWZ3).
T1 sequence (Q9NWZ3 1-460): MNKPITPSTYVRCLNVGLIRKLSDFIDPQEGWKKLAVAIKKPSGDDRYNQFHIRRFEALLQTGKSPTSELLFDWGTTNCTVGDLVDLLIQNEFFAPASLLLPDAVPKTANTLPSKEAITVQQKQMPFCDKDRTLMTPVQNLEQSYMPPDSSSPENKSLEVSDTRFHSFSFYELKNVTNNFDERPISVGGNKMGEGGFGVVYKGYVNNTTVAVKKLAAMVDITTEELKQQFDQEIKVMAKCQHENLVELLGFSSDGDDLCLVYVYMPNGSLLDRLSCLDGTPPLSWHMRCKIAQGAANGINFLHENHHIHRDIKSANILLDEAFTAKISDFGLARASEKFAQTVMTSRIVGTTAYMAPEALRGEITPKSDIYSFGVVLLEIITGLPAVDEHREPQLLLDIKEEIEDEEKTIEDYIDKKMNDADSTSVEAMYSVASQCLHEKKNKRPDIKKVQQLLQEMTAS
As to the kind of experiment: Competition binding assay in HL60 cell lysate, antibody detection. Further details: endogenous in cells; host or cells: HL60. Particulars: dose response curve, anti-IRAK4 antibody. As to the method:
(§1) The experiment was performed as described in example 7. The test compound (or DMSO as solvent control) and diluted cell lysate were added to the affinity matrix and incubated for two hours at 4° C. After washing, captured proteins were eluted with SDS-containing sample buffer. After spotting of eluate samples onto Nitrocellulose membranes IRAK1 was detected with an anti-IRAK1 antibody and IRAK4 with anti-IRAK4 antibody followed by incubation with a secondary fluorescently labeled detection antibody.
(§2) Various concentrations of test compounds were added to HL60 lysate samples and allowed to bind to the proteins contained in the lysate sample. At the same time the affinity matrix with the immobilized compound (FIG. 3, CZC31326) was added as well in order to capture proteins not bound to the test compound. After the incubation time the beads with captured proteins were separated from the lysate. Bound proteins were then eluted and the presence of IRAK1 and IRAK4 was detected and quantitavely determined using specific antibodies and the Odyssey Infrared Detection system. […]
(§3) The kinases in the eluates were detected and quantified by spotting on Nitrocellulose membranes and using a first antibody directed against the kinase of interest and a fluorescently labeled secondary antibody (anti-mouse or anti-rabbit IRDye™ antibodies from Rockland). […]

A further assay has as its target IRAK1 (Homo sapiens, UniProt P51617). The assay is described as above. Details: endogenous in cells; host or cells: HL60. Particulars: dose response curve, anti-IRAK1 antibody. As to the method: as §1, §2, §3

Sequence of IRAK1 (P51617 whole entry): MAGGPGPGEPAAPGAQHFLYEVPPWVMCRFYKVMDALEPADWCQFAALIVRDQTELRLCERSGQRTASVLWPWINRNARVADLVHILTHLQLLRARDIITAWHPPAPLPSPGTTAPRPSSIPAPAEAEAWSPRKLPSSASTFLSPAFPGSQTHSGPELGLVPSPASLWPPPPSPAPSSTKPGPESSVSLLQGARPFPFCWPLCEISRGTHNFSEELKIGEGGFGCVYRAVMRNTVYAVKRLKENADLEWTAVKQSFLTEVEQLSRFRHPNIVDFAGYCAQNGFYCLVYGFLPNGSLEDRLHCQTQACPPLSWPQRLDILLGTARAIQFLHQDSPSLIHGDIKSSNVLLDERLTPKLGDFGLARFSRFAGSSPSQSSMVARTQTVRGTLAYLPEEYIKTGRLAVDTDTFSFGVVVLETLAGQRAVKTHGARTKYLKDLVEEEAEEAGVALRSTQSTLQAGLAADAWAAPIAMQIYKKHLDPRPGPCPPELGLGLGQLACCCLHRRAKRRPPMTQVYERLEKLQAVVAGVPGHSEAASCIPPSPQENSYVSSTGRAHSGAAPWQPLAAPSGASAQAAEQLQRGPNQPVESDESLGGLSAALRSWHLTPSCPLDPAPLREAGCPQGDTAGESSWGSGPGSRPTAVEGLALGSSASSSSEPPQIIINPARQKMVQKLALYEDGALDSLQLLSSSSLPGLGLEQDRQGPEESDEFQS

With `CS(=O)(=O)Nc1ccccc1Nc1nc(Nc2cccc(OCCN)c2)ncc1Cl` [CZC31326, N-(2-(2-(3-(2-aminoethoxy)phenylamino)-5-chloropyrimidin-4-ylamino)phenyl)methanesulfonamide], the IC50 at IRAK4 came out at 40 nM; on IRAK1, 150 nM.

The IC50 is the concentration that gives 50% inhibition.

These data come from patent US20120270237A9, “METHODS FOR THE IDENTIFICATION OF KINASE INTERACTING MOLECULES AND FOR THE PURIFICATION OF KINASE PROTEINS” (Cellzone AG, priority 2009, published 2012).
